For one compound, remaining activity results are on record in PMC2806030, “Inhibition of mammalian S6 kinase by resveratrol suppresses autophagy” (Aging (Albany NY), 2009).

Holding throughout (assay): biochemical
Holding throughout (set-up): Upstate KinaseProfiler in vitro kinase activity assay, per cent of DMSO control
What all share (conditions): read-out: Activity (% of Control)

One assay has as its target Met(h) (Homo sapiens, UniProt P08581). As to the method: (§1) Kinase profile and kinase assay. A Kinase profile against 100 kinases listed for resveratrol at 20 μM was generated utilizing Upstate's KinaseProfiler™ service. Assay protocols for each kinase are available from Upstate (Lake Placid, NY). In vitro kinase assay was performed as described previously. Briefly, HEK293 cells were transfected with HA-S6K1 wt, HA-S6K1 K100R, or vector as indicated. Cells were treated with 1 μg/ml insulin for 10 minutes prior to harvesting in PBS + 0.5% NP-40 + protease and phosphatase inhibitors. 125 μg of lysate per sample was immunoprecipitated using 0.5 μg/sample of anti-HA High-Affinity (Roche, Basel Switzerland). Beads from immunoprecipitations were washed three times in lysis buffer and once in kinase buffer, and kinase assays were performed with recombinant GST-S6 as substrate (1 μg per assay). In the indicated lanes varying doses of resveratrol or DMSO control were added to the reaction prior to addition of the GST-S6 substrate. All samples were subjected to SDS-PAGE, and 32P incorporation was quantified by using a Bio-Rad (Hercules, CA) Phosphor-Imager and subsequent analysis with ImageJ (NIH).  Figure 4. Resveratrol inhibits S6K1 in vitro. (A) Structural similarity between resveratrol and quercetin, a known kinase inhibitor. (B) Kinase inhibition profile for resveratrol at 20 μM obtained using KinaseProfiler™ (Upstate). Dashed line represents 100% activity as compared to control. Black filled-in bar on the graph indicates S6K1. Complete data set is provided in Supplementary Table 1. Error bars represent s.d.m. (C) Phosphorylation of recombinant GST-tagged S6 by immunoprecipitated HA-S6K1 under increasing concentrations of resveratrol (Res). Autoradiograph depicts S6K1 phosphorylation of GST-S6. (D) Average of three separate kinase assay experiments as performed in (C). Densitometry was performed using NIH ImageJ. Error bars represent s.e.m. […] Therefore, we hypothesized that the effect of resveratrol on autophagy could be related to inhibition of one or more upstream kinases. To test this, we performed an in vitro kinase screen and determined an inhibition profile for resveratrol. […] With the exception of S6K1, these kinases play primary roles in the hematopoietic system, and were thus viewed as unlikely to have been responsible for the effect we were studying. […] On the other hand, S6K1 is known to play a requisite role in the regulation of autophagy in Drosophila, making it a promising candidate for the in vivo target of resveratrol that is responsible for inhibition of autophagy.

Another assay concerns the target Jak2 (Homo sapiens, UniProt O60674). As to the method: as §1
A further assay has as its target T1, GSK3α(h) (Homo sapiens, UniProt P49840).
T1 construct: gene GSK3A
As to the method:
as §1

The target of a further assay is T2, IR(h) (Homo sapiens, UniProt P06213).
T2 construct: gene INSR
As to the method: as §1

The next assay addresses T3, PKCδ(h) (Homo sapiens, UniProt Q05655).
T3 construct: gene PRKCD
As to the method:
as §1

In another assay the target is PAK4(h) (Homo sapiens, UniProt O96013). As to the method:
as §1

Another assay concerns the target CDK9/cyclin T1(h) (Homo sapiens, UniProt P50750). As to the method:
as §1

Another assay has as its target T4, Tie2(h) (Homo sapiens, UniProt Q02763).
T4 construct: gene TEK
As to the method:
as §1

The target in the next assay is T5, PKCßI(h) (Homo sapiens, UniProt P05771).
T5 construct: gene PRKCB; isoform beta I
T5 sequence (P05771 whole entry, canonical isoform): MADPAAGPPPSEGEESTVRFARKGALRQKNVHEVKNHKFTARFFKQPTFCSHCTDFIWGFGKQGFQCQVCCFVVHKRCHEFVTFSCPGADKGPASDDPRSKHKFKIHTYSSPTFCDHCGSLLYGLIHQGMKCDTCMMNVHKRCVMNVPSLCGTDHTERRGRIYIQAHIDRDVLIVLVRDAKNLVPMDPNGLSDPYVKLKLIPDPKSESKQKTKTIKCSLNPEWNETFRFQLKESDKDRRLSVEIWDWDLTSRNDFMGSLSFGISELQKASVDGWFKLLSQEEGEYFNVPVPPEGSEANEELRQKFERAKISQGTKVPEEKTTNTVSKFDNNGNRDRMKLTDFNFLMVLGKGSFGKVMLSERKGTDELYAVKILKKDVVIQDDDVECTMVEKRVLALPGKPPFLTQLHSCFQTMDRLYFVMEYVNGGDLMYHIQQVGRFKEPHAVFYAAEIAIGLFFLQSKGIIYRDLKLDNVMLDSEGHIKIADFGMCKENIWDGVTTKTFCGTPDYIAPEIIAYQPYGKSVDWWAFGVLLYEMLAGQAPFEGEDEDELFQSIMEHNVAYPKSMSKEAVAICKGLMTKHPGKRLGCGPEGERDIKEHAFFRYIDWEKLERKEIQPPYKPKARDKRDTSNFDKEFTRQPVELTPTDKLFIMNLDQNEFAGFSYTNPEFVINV
As to the method: as §1

The target of another assay is T6, Pim-1 (Homo sapiens, UniProt P11309).
T6 construct: gene PIM1
As to the method: as §1

The target of the next assay is CSK(h) (Homo sapiens, UniProt P41240). As to the method: as §1
Chain of CSK(h) (P41240 whole entry): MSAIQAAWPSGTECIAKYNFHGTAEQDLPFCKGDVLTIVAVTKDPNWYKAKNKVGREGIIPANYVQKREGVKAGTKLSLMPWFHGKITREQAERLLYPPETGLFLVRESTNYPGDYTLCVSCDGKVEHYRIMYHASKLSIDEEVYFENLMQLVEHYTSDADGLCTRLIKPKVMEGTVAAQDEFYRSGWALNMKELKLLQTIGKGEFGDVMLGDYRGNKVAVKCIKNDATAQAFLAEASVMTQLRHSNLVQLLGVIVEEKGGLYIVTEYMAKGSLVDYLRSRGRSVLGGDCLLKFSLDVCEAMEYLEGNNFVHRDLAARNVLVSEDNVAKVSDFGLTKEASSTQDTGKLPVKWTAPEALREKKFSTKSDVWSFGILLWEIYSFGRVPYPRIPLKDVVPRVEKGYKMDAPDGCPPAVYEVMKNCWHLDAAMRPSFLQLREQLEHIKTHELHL
A further assay deals with T7, SAPK2a(T106M)(h) (Homo sapiens, UniProt Q16539, T106M).
T7 construct: gene MAPK14
As to the method: as §1

In another assay the target is T8, IRR(h) (Homo sapiens, UniProt P14616).
T8 construct: gene INSRR
As to the method:
as §1

The next assay addresses T9, PI 3-Kinaseγ(h) (Homo sapiens, UniProt P48736).
T9 construct: gene PIK3CG
As to the method: as §1

The target of a further assay is T10, JNK1α1(h) (Homo sapiens, UniProt P45983).
T10 construct: gene MAPK8; isoform alpha1
As to the method:
as §1

In the next assay the target is T11, PKCγ(h) (Homo sapiens, UniProt P05129).
T11 construct: gene PRKCG
As to the method:
as §1

The next assay concerns the target T12, PKBα(h) (Homo sapiens, UniProt P31749).
T12 construct: gene AKT1
As to the method:
as §1

For the next assay, the target named is T13, MSK2(h) (Homo sapiens, UniProt O75676).
T13 construct: gene RPS6KA4
As to the method: as §1

T1 sequence (P49840 whole entry): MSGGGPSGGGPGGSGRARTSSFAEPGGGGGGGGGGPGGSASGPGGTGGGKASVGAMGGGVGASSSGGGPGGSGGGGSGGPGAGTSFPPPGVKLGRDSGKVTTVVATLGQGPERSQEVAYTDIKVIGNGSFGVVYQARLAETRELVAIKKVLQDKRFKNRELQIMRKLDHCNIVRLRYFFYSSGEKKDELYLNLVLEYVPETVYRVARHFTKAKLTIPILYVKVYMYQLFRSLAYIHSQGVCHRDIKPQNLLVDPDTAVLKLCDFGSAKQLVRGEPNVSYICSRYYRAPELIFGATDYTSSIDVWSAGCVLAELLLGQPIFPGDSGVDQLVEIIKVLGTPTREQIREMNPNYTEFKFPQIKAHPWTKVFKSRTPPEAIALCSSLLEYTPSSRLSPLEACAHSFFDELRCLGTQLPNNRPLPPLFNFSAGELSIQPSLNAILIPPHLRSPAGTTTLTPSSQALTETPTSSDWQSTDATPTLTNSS
Chain of CDK9/cyclin T1(h) (P50750 whole entry): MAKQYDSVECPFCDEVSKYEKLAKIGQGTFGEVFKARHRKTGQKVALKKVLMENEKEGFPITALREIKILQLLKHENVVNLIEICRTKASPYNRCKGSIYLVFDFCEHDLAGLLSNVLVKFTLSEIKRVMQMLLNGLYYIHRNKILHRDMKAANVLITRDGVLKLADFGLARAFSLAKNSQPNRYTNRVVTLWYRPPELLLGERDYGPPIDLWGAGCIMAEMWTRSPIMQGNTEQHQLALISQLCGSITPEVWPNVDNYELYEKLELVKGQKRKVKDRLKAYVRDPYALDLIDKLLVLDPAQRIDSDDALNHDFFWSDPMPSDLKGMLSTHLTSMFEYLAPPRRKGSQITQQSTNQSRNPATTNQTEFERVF
Chain of CDK9/cyclin T1(h) (O60563 whole entry partner): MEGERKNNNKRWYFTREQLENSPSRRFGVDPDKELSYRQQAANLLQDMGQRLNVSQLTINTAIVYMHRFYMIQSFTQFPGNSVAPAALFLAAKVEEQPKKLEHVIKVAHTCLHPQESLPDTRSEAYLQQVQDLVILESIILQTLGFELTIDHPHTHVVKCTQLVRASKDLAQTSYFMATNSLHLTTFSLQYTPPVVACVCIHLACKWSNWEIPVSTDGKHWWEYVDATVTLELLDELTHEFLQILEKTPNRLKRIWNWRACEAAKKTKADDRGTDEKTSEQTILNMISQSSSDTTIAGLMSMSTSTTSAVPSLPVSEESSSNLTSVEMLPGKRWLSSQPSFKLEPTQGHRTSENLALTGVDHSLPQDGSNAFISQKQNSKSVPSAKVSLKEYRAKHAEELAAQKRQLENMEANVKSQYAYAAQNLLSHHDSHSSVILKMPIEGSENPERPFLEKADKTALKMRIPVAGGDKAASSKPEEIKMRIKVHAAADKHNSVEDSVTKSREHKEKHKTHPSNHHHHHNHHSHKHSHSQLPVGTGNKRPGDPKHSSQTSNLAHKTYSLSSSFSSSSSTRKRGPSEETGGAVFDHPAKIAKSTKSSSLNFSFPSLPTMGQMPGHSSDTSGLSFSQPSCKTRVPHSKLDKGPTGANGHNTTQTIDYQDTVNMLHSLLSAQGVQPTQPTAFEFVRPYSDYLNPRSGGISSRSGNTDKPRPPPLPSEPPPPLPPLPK
Chain of Jak2 (O60674 whole entry): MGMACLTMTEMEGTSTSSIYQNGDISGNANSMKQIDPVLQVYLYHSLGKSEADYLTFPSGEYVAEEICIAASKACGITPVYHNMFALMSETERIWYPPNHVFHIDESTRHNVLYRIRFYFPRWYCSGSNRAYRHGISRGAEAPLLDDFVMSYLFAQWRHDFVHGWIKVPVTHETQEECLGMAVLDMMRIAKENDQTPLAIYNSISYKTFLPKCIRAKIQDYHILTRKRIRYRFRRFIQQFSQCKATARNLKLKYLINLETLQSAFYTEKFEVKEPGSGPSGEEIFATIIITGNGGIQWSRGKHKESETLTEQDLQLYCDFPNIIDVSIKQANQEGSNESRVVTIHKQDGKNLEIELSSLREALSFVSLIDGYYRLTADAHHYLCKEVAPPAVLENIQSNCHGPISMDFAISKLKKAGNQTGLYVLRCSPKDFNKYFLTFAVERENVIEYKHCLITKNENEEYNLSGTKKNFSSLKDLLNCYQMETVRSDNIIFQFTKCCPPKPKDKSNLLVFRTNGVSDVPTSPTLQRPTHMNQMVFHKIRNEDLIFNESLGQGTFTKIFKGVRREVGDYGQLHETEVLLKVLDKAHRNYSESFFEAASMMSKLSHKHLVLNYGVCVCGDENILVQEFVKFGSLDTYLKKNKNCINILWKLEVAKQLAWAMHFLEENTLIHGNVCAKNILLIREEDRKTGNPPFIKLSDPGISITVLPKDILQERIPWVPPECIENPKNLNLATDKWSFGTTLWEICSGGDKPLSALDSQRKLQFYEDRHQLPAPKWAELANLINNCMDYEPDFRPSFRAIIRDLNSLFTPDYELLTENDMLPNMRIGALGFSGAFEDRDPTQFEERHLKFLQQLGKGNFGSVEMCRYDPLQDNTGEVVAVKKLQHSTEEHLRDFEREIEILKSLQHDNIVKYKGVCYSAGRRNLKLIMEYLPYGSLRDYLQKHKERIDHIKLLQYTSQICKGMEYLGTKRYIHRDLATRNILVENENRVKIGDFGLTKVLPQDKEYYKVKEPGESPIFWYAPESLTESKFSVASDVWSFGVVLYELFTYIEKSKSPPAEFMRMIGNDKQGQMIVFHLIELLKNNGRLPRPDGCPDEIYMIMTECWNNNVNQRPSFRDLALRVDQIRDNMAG
T3 sequence (Q05655 whole entry): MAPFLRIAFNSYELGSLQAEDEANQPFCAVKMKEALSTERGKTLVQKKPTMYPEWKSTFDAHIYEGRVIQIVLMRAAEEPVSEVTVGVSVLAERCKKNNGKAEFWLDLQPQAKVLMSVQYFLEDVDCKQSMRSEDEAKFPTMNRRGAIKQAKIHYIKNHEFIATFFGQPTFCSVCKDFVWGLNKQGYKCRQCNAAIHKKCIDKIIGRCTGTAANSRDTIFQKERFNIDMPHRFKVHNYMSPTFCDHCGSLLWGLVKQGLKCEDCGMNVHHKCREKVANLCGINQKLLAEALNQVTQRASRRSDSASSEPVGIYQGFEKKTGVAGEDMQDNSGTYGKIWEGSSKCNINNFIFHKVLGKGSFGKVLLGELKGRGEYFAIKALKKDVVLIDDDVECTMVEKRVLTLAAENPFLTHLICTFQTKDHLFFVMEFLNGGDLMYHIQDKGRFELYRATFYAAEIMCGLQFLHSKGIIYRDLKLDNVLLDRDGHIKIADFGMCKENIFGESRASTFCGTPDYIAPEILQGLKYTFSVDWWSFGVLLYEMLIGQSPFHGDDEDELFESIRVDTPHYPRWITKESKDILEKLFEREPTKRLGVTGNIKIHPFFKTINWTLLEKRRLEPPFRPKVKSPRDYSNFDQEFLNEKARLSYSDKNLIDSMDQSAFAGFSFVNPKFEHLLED
T12 sequence (P31749 whole entry): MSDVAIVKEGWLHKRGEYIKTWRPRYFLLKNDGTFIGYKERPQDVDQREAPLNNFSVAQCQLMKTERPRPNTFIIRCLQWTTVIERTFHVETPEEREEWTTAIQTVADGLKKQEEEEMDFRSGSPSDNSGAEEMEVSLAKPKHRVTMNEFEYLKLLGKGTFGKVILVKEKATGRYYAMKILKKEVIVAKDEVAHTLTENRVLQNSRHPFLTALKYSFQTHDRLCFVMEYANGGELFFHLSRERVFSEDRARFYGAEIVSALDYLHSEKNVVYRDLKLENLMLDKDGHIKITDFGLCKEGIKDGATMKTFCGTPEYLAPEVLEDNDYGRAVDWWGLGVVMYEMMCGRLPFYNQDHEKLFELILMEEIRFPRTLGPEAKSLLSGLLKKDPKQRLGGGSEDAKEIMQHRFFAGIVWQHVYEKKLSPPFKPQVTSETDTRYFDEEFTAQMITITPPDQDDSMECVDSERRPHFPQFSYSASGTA

Turning to `Oc1ccc(/C=C/c2cc(O)cc(O)c2)cc1` [Res, resveratrol], the remaining activity at 20 µM at Met(h) was 114 ± 5%; on Jak2, 27 ± 5%; at GSK3α(h), 79 ± 4%; on IR(h) it was 71 ± 5%; at PKCδ(h), 92 ± 1%; at PAK4(h), 103 ± 4%. For the same compound, the remaining activity at 20 µM at CDK9/cyclin T1(h) was 70 ± 3%; at Tie2(h), 94 ± 8%; on PKCßI(h) it was 103 ± 5%; on Pim-1, 6 ± 2%; on CSK(h) it was 94 ± 5%; at SAPK2a(T106M)(h) it was 102 ± 2%. Further, the remaining activity at 20 µM at IRR(h) is 40%; at PI 3-Kinaseγ(h), 101 ± 1%; on JNK1α1(h), 89 ± 5%; on PKCγ(h), 80 ± 8%; at PKBα(h), 94 ± 2%; on MSK2(h) it was 60 ± 1%.
